Test results as given in ChEMBL document CHEMBL1201862, “PubChem BioAssay data set” (2004).
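Assay format: 96-well plates, 48-hour exposure. Here, GI50 denotes the concentration required for 50% inhibition of growth.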 Activity calls are given as the source filed them. No stated cut-off is given here; in the data, active = GI50 up to about 1.1 µM and inactive = higher.

What was measured:
Assay in all cases: NCI-60 cell line screen, 48 h
786-0 = system: 786-0
A498 = system: A498
A549 = system: A549
ACHN = system: ACHN
BT-549 = system: BT-549
CAKI-1 = system: CAKI-1
CCRF-CEM = system: CCRF-CEM
COLO 205 = system: COLO 205
DU-145 = system: DU-145
EKVX = system: EKVX
HCC 2998 = system: HCC 2998
HCT-116 = system: HCT-116
HCT-15 = system: HCT-15
HL-60 = system: HL-60
HOP-62 = system: HOP-62
HOP-92 = system: HOP-92
HT-29 = system: HT-29
Hs-578T = system: Hs-578T
IGROV-1 = system: IGROV-1
K562 = system: K562
KM12 = system: KM12
LOX IMVI = system: LOX IMVI
M14 = system: M14
MCF7 = system: MCF7
MDA-MB-231 = system: MDA-MB-231
MDA-MB-435 = system: MDA-MB-435
MDA-N = system: MDA-N
MOLT-4 = system: MOLT-4
Malme-3M = system: Malme-3M
NCI-H226 = system: NCI-H226
NCI-H23 = system: NCI-H23
NCI-H460 = system: NCI-H460
NCI-H522 = system: NCI-H522
NCI/ADR-RES = system: NCI/ADR-RES
OVCAR-3 = system: OVCAR-3
OVCAR-4 = system: OVCAR-4
OVCAR-5 = system: OVCAR-5
OVCAR-8 = system: OVCAR-8
PC-3 = system: PC-3
RPMI-8226 = system: RPMI-8226
RXF 393 = system: RXF 393
SF-268 = system: SF-268
SF-295 = system: SF-295
SF-539 = system: SF-539
SK-MEL-28 = system: SK-MEL-28
SK-MEL-2 = system: SK-MEL-2
SK-MEL-5 = system: SK-MEL-5
SK-OV-3 = system: SK-OV-3
SN12C = system: SN12C
SNB-19 = system: SNB-19
SNB-75 = system: SNB-75
SW-620 = system: SW-620
TK-10 = system: TK-10
U-251 = system: U-251
UACC-257 = system: UACC-257
UACC-62 = system: UACC-62
UO-31 = system: UO-31

With `Cc1ccc(C)n1-c1ccccc1C1C=CN(C(=O)OC(C)(C)C)C=C1` the GI50 (786-0) was 31.8 µM (inactive), the GI50 (A498) was 50.5 µM (inactive) and the GI50 (A549) was 31.1 µM (inactive). The GI50 (ACHN) was 32.6 µM (inactive), the GI50 (BT-549) was 32.7 µM (inactive) and the GI50 (CAKI-1) was 33.3 µM (inactive). For the same compound, the GI50 (CCRF-CEM) was 35.3 µM (inactive), the GI50 (COLO 205) was 17.2 µM (inactive) and the GI50 (DU-145) was 56.4 µM (inactive). For the same compound, the GI50 (EKVX) was 16.4 µM (inactive), the GI50 (HCC 2998) was 17.3 µM (inactive) and the GI50 (HCT-116) was 15 µM (inactive). For the same compound, the GI50 (HCT-15) was 20.6 µM, the GI50 (HL-60) was 32.7 µM (inactive) and the GI50 (HOP-62) was 31.4 µM (inactive). For the same compound, the GI50 (HOP-92) was 37.6 µM (inactive), the GI50 (HT-29) was 12.1 µM (inactive) and the GI50 (Hs-578T) was 37.8 µM (inactive). The GI50 (IGROV-1) was 31.4 µM (inactive), the GI50 (K562) was 32.3 µM (inactive) and the GI50 (KM12) was 14.9 µM (inactive). For the same compound, the GI50 (LOX IMVI) was 20.5 µM (inactive), the GI50 (M14) was 28.8 µM (inactive) and the GI50 (MCF7) was 17.4 µM (inactive). The GI50 (MDA-MB-231) was 19.7 µM (inactive), the GI50 (MDA-MB-435) was 36.2 µM (inactive) and the GI50 (MDA-N) was 46.2 µM (inactive). The GI50 (MOLT-4) was 21.7 µM (inactive), the GI50 (Malme-3M) was 15.7 µM (inactive) and the GI50 (NCI-H226) was 14.1 µM (inactive). For the same compound, the GI50 (NCI-H23) was 27.5 µM (inactive), the GI50 (NCI-H460) was 28.2 µM (inactive) and the GI50 (NCI-H522) was 16.6 µM (inactive). The GI50 (NCI/ADR-RES) was 27.6 µM (inactive), the GI50 (OVCAR-3) was 17.8 µM (inactive) and the GI50 (OVCAR-4) was 71.4 µM (inactive). The GI50 (OVCAR-5) was 29.6 µM (inactive), the GI50 (OVCAR-8) was 32.7 µM (inactive) and the GI50 (PC-3) was 25.9 µM (inactive). The GI50 (RPMI-8226) was 20.4 µM (inactive), the GI50 (RXF 393) was 19.6 µM (inactive) and the GI50 (SF-268) was 33.6 µM (inactive). The GI50 (SF-295) was 30 µM (inactive), the GI50 (SF-539) was 46.3 µM (inactive) and the GI50 (SK-MEL-28) was 44.9 µM (inactive). The GI50 (SK-MEL-2) was 16.9 µM (inactive), the GI50 (SK-MEL-5) was 33.4 µM (inactive) and the GI50 (SK-OV-3) was > 100 µM (inactive). The GI50 (SN12C) was 33.6 µM (inactive), the GI50 (SNB-19) was 47.6 µM (inactive) and the GI50 (SNB-75) was 13.5 µM (inactive). For the same compound, the GI50 (SW-620) was 19.2 µM (inactive), the GI50 (TK-10) was 67.3 µM (inactive) and the GI50 (U-251) was 26.3 µM (inactive). The GI50 (UACC-257) was 34.7 µM (inactive), the GI50 (UACC-62) was 25.8 µM (inactive) and the GI50 (UO-31) was 33.1 µM (inactive).
